# Data published in PubChem BioAssay (NCI).
#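 Five compound concentrations were applied to cells in 96-well plates for 48 hours; endpoints were derived by simple linear interpolation of the resulting dose-response curve. GI50 = concentration required for 50% inhibition of growth. At the TGI there is no net growth.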
# Columns and labels:
# Test in all cases: growth of human tumour cells (NCI), 48 h
# BT-549 breast = test system: BT-549 breast
# HOP-62 NSCLC = test system: HOP-62 NSCLC
# COLO 205 colon = test system: COLO 205 colon
# T-47D breast = test system: T-47D breast
# SF-268 CNS = test system: SF-268 CNS
# HCT-15 colon = test system: HCT-15 colon
# NCI-H460 lung = test system: NCI-H460 lung
# SN12C renal = test system: SN12C renal
# KM12 colon = test system: KM12 colon
# OVCAR-4 ovarian = test system: OVCAR-4 ovarian
# HL-60(TB) leukemia = test system: HL-60(TB) leukemia
# SK-MEL-28 melanoma = test system: SK-MEL-28 melanoma
# OVCAR-8 ovarian = test system: OVCAR-8 ovarian
# SNB-19 CNS = test system: SNB-19 CNS
# SF-539 CNS = test system: SF-539 CNS
# NCI-H23 lung = test system: NCI-H23 lung
# MDA-MB-435 = test system: MDA-MB-435
# MCF7 breast = test system: MCF7 breast
# PC-3 prostate = test system: PC-3 prostate
# DU-145 prostate = test system: DU-145 prostate
# HS 578T breast = test system: HS 578T breast
# OVCAR-5 ovarian = test system: OVCAR-5 ovarian
# UO-31 renal = test system: UO-31 renal
# MDA-MB-231 breast = test system: MDA-MB-231 breast
# U251 CNS = test system: U251 CNS
# HCT-116 colon = test system: HCT-116 colon
smiles,measurement,setting,value
Cc1nc2cc(Nc3nc(Nc4ccc(F)cc4)nc(N4CCOCC4)n3)ccc2n1Cc1ccccc1,GI50,BT-549 breast,8.19 µM
same,TGI,BT-549 breast,25.7 µM
same,GI50,HOP-62 NSCLC,9.06 µM
same,TGI,HOP-62 NSCLC,24 µM
same,GI50,COLO 205 colon,1.84 µM
same,TGI,COLO 205 colon,3.33 µM
same,GI50,T-47D breast,3.88 µM
same,TGI,T-47D breast,> 100 µM
same,GI50,SF-268 CNS,5.41 µM
same,TGI,SF-268 CNS,49.2 µM
same,GI50,HCT-15 colon,2.19 µM
same,TGI,HCT-15 colon,5.18 µM
same,GI50,NCI-H460 lung,2.26 µM
same,TGI,NCI-H460 lung,5.02 µM
same,GI50,SN12C renal,4.63 µM
same,TGI,SN12C renal,27.4 µM
same,GI50,KM12 colon,3.77 µM
same,TGI,KM12 colon,14.2 µM
same,GI50,OVCAR-4 ovarian,4.47 µM
same,TGI,OVCAR-4 ovarian,41.8 µM
same,GI50,HL-60(TB) leukemia,2.07 µM
same,TGI,HL-60(TB) leukemia,4.73 µM
same,GI50,SK-MEL-28 melanoma,3.17 µM
same,TGI,SK-MEL-28 melanoma,9.6 µM
same,GI50,OVCAR-8 ovarian,4.34 µM
same,TGI,OVCAR-8 ovarian,23.6 µM
same,GI50,SNB-19 CNS,5.72 µM
same,TGI,SNB-19 CNS,> 100 µM
same,GI50,SF-539 CNS,3.54 µM
same,TGI,SF-539 CNS,14.5 µM
same,GI50,NCI-H23 lung,6.43 µM
same,TGI,NCI-H23 lung,30.6 µM
same,GI50,MDA-MB-435,3.95 µM
same,TGI,MDA-MB-435,15.9 µM
same,GI50,MCF7 breast,3.23 µM
same,TGI,MCF7 breast,13.8 µM
same,GI50,PC-3 prostate,2.91 µM
same,TGI,PC-3 prostate,16.8 µM
same,GI50,DU-145 prostate,4.81 µM
same,TGI,DU-145 prostate,18.8 µM
same,GI50,HS 578T breast,3.84 µM
same,TGI,HS 578T breast,58.5 µM
same,GI50,OVCAR-5 ovarian,12.3 µM
same,TGI,OVCAR-5 ovarian,28.6 µM
same,GI50,UO-31 renal,3.24 µM
same,TGI,UO-31 renal,14.6 µM
same,GI50,MDA-MB-231 breast,3.36 µM
same,TGI,MDA-MB-231 breast,14.7 µM
same,GI50,U251 CNS,1.99 µM
same,TGI,U251 CNS,4.6 µM
same,GI50,HCT-116 colon,1.98 µM
